Source: patent publication US20250230193A1, “CYCLIC COMPOUND HAVING SELECTIVE KRAS INHIBITORY EFFECT ON HRAS AND NRAS” (CHUGAI SEIYAKU KABUSHIKI KAISHA, priority 2022, published 2025)
Where a SMILES comes first, the peptide text is derived from it. Bridges are numbered along the chain shown (N, C = ends). [ ]: non-standard residue; d: D form. The star is where a group is joined. ξ: configuration not given here. hPhe(3-Cl-4-CF3) = N[C@@H](CCc1ccc(C(F)(F)F)c(Cl)c1)C(=O)O; NPrPhe(4-CF3) = CCCN[C@@H](Cc1ccc(C(F)(F)F)cc1)C(=O)O; NMeGly(cPent) = CN[C@H](C(=O)O)C1CCCC1; Hyp = O=C(O)[C@@H]1C[C@@H](O)CN1; NMeL = CN[C@@H](CC(C)C)C(=O)O; ξNMeD = CNC(CC(=O)O)C(=O)O; Morpholide = C1CN(*)CCO1; NMeA = CN[C@@H](C)C(=O)O; Ac5c = NC1(C(=O)O)CCCC1; Aze = O=C(O)[C@@H]1CCN1; Ac4c = NC1(C(=O)O)CCC1; ξP = O=C(O)C1CCCN1; NEtG = CCNCC(=O)O; Sar = CNCC(=O)O

Key:
[1] = target: GDP-bound HRAS wild-type protein (Homo sapiens, UniProt P01112); test: Binding to HRAS by surface plasmon resonance (SPR), Single Cycle Kinetics
GDP-bound HRAS wild-type protein, sequence (P01112 whole entry): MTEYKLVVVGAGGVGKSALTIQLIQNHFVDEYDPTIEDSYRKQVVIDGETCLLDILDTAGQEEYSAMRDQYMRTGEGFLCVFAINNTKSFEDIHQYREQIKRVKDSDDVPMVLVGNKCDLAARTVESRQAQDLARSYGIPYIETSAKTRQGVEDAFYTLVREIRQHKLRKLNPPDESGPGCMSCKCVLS

[2] = target: GDP-bound NRAS wild-type protein (Homo sapiens, UniProt P01111); test: Binding to NRAS by surface plasmon resonance (SPR), Single Cycle Kinetics
GDP-bound NRAS wild-type protein, sequence (P01111 whole entry): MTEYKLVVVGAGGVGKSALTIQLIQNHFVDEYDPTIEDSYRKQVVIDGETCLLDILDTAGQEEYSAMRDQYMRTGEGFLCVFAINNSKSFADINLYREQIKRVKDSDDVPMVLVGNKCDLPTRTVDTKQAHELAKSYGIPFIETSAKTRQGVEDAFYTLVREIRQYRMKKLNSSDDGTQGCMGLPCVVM

[3] = KD ratio, GDP-bound HRAS wild-type vs GDP-bound KRAS wild-type, SPR
[4] = KD ratio, GDP-bound NRAS wild-type vs GDP-bound KRAS wild-type, SPR
[5] = SPR, GDP-bound wild-type proteins

`CCCN1C(=O)[C@@H]2CCN2C(=O)[C@H](C)N(C)C(=O)[C@H]([C@@H](C)CC)NC(=O)[C@H](CC(C)C)N(C)C(=O)C[C@@H](C(=O)N2CCOCC2)NC(=O)[C@H](C2CCCC2)N(C)C(=O)C2(CCC2)NC(=O)[C@@H]2C[C@@H](OCC)CN2C(=O)[C@H](CCc2ccc(C(F)(F)F)c(Cl)c2)NC(=O)CN(C)C(=O)[C@@H]1Cc1ccc(C(F)(F)F)cc1` [PP0348] ([NMeL]I[NMeA][Aze][NPrPhe(4-CF3)][Sar][hPhe(3-Cl-4-CF3)][Hyp](Et)[Ac4c][NMeGly(cPent)]D-Morpholide; lactam N-11) was tested, and the “HRAS/KRAS (ratio of KD for GDP-bound HRAS wild-type to KD for KRAS)” value ([1]; SPR) was “B (a compound having 3 or more and less than 10 is denoted as B)” and the “NRAS/KRAS (ratio of KD for GDP-bound NRAS wild-type to KD for KRAS)” value ([2]; SPR) was “C (A compound having a KD ratio of 0.1 or more and less than 3 is denoted as C)”.

`CCO[C@@H]1C[C@H]2C(=O)NC3(CCC3)C(=O)N(C)[C@@H](C3CCCC3)C(=O)N(C)[C@H](C(=O)N3CCOCC3)CC(=O)N(CC)[C@@H](CC(C)C)C(=O)N[C@@H]([C@@H](C)CC)C(=O)N(C)CC(=O)N(C)[C@H]3C[C@@H](C)CCN(C3=O)[C@@H](Cc3ccc(C(F)(F)F)cc3)C(=O)N(C)CC(=O)N[C@@H](CCc3cc(F)c(C(F)(F)F)c(F)c3)C(=O)N2C1` [PP1030] was tested, and the “HRAS/KRAS (ratio of KD value with respect to HRAS to KD value with respect to KRAS)” value [1, 3] was “B (a compound having 3 or more and less than 10 is denoted as B)” and the “NRAS/KRAS (ratio of KD value with respect to NRAS to KD value with respect to KRAS)” value [2, 4] was “B (a compound having 3 or more and less than 10 is denoted as B)”.

`CCCN1C(=O)CN(C)C(=O)CN(C)C(=O)[C@H]([C@@H](C)CC)NC(=O)[C@H](CC(C)C)N(C)C(=O)CC(C(=O)N2CCOCC2)N(C)C(=O)[C@H](C2CCCC2)N(C)C(=O)C2(CCCC2)NC(=O)[C@@H]2CCCN2C(=O)[C@H](CCc2ccc(C(F)(F)F)c(Cl)c2)NC(=O)C2CCCN2C(=O)[C@@H]1Cc1ccc(C(F)(F)F)cc1` (stereo partly shown) [PP0149] ([NMeL]I[Sar][Sar][NPrPhe(4-CF3)][ξP][hPhe(3-Cl-4-CF3)]P[Ac5c][NMeGly(cPent)][ξNMeD]-Morpholide; lactam N-11) was tested, and the “HRAS/KRAS (ratio of KD for GDP-bound HRAS wild-type to KD for KRAS)” value ([1]; SPR) was “B (a compound having 3 or more and less than 10 is denoted as B)” and the “NRAS/KRAS (ratio of KD for GDP-bound NRAS wild-type to KD for KRAS)” value ([2]; SPR) was “C (A compound having a KD ratio of 0.1 or more and less than 3 is denoted as C)”.

With `CCCN1C(=O)CN(C)C(=O)CN(CC)C(=O)[C@H]([C@@H](C)CC)NC(=O)[C@H](CC(C)C)N(C)C(=O)C[C@@H](C(=O)N2CCOCC2)NC(=O)[C@H](C2CCCC2)N(C)C(=O)C2(CCC2)NC(=O)[C@@H]2CCCN2C(=O)[C@H](CCc2ccc(C(F)(F)F)c(Cl)c2)NC(=O)CN(C)C(=O)[C@@H]1Cc1ccc(C(F)(F)F)cc1` [PP0332] ([NMeL]I[NEtG][Sar][NPrPhe(4-CF3)][Sar][hPhe(3-Cl-4-CF3)]P[Ac4c][NMeGly(cPent)]D-Morpholide; lactam N-11) the “HRAS/KRAS (ratio of KD for GDP-bound HRAS wild-type to KD for KRAS)” value ([1]; SPR) was “B (a compound having 3 or more and less than 10 is denoted as B)” and the “NRAS/KRAS (ratio of KD for GDP-bound NRAS wild-type to KD for KRAS)” value ([2]; SPR) was “B (a compound having 3 or more and less than 10 is denoted as B)”.

`C#CC[C@H]1C(=O)N[C@@H]([C@@H](C)CC)C(=O)N(C)CC(=O)N(C)[C@H]2C/C=C\CCN(C2=O)[C@@H](Cc2ccc(C(F)(F)F)cc2)C(=O)N(C)CC(=O)N[C@@H](CCc2ccc(C(F)(F)F)c(OC)c2)C(=O)N2CCOC[C@H]2C(=O)NC2(CC(C)(C)C2)C(=O)N(C)[C@@H](C2CCCC2)C(=O)N(C)[C@H](C(=O)N(C)C)CC(=O)N1C` [PP2905] was tested, and the “HRAS/KRAS (ratio of KD value with respect to GDP-bound HRAS wild-type protein to KD value with respect to KRAS)” value ([1]; class symbols) was “A (a compound having 10 or more and less than 20 is denoted as A)” and the “NRAS/KRAS (ratio of KD value with respect to GDP-bound NRAS wild-type protein to KD value with respect to KRAS)” value ([2]; class symbols) was “AA (a compound having 20 or more is denoted as AA)”.

With `CCO[C@@H]1C[C@H]2C(=O)NC3(CC(C)(C)C3)C(=O)N(C)[C@@H](C3CCCC3)C(=O)N(C)[C@H](C(=O)N(C)C)CC(=O)N(C)[C@H]3CCCCCc4ccc(cc4)C[C@@H](C(=O)N(C)CC(=O)N[C@@H](CCc4ccc(C(F)(F)F)c(OC)c4)C(=O)N2C1)N1CC/C=C\C[C@@H](C1=O)N(C)C(=O)CN(C1CC1)C(=O)[C@H]([C@@H](C)CC)NC3=O` [PP3075] the “HRAS/KRAS (ratio of KD value with respect to GDP-bound HRAS wild-type protein to KD value with respect to KRAS)” value [1, 5] was “A (a compound having 10 or more and less than 20 is denoted as A)” and the “NRAS/KRAS (ratio of KD value with respect to GDP-bound NRAS wild-type protein to KD value with respect to KRAS)” value [2, 5] was “A (a compound having 10 or more and less than 20 is denoted as A)”.

In the case of `CCO[C@@H]1C[C@H]2C(=O)NC3(CCC3)C(=O)N(C)[C@@H](C3CCCC3)C(=O)N(C)[C@H](C(=O)N(C)C)CC(=O)N(CC)[C@@H](CC(C)C)C(=O)N[C@@H]([C@@H](C)CC)C(=O)N(C)CC(=O)N(C)[C@H]3CC(C)=C(C)CN(C3=O)[C@@H](Cc3ccc(C(F)(F)F)cc3)C(=O)N(C)CC(=O)N[C@@H](CCc3cc(F)c(C(F)(F)F)c(F)c3)C(=O)N2C1` [PP1051], the “HRAS/KRAS (ratio of KD value with respect to HRAS to KD value with respect to KRAS)” value [1, 3] is reported as “C (A compound having a KD ratio of 0.1 or more and less than 3 is denoted as C)” and the “NRAS/KRAS (ratio of KD value with respect to NRAS to KD value with respect to KRAS)” value [2, 4] is reported as “C (A compound having a KD ratio of 0.1 or more and less than 3 is denoted as C)”.

With `CCO[C@@H]1C[C@H]2C(=O)NC3(CC(C)(C)C3)C(=O)N(C)[C@@H](C3CCCC3)C(=O)N(C)[C@H](C(=O)N3CCCCC3)CC(=O)N(C)[C@H]3CCC/C=C/c4ccc(cc4)C[C@@H](C(=O)N(C)CC(=O)N[C@@H](CCc4cc(F)c(C(F)(F)F)c(F)c4)C(=O)N2C1)N1CC/C=C\C[C@@H](C1=O)N(C)C(=O)CN(C)C(=O)[C@H]([C@@H](C)CC)NC3=O` [PP2573] the “HRAS/KRAS (ratio of KD value with respect to GDP-bound HRAS wild-type protein to KD value with respect to KRAS)” value ([1]; class symbols) was “A (a compound having 10 or more and less than 20 is denoted as A)” and the “NRAS/KRAS (ratio of KD value with respect to GDP-bound NRAS wild-type protein to KD value with respect to KRAS)” value ([2]; class symbols) was “A (a compound having 10 or more and less than 20 is denoted as A)”.

For `CCCN1C(=O)CN(C)C(=O)CNC(=O)[C@H]([C@@H](C)CC)NC(=O)[C@H](CC(C)C)N(C)C(=O)C[C@@H](C(=O)N(C)C)NC(=O)[C@H](C2CCCC2)N(C)C(=O)C2(CCC2)NC(=O)[C@@H]2CCCN2C(=O)[C@H](CCc2ccc(C(F)(F)F)c(Cl)c2)NC(=O)CN(C)C(=O)[C@@H]1Cc1ccc(C(F)(F)F)cc1` [PP0362] ([NMeL]IG[Sar][NPrPhe(4-CF3)][Sar][hPhe(3-Cl-4-CF3)]P[Ac4c][NMeGly(cPent)]D-NMe2; lactam N-11), the “HRAS/KRAS (ratio of KD for GDP-bound HRAS wild-type to KD for KRAS)” value ([1]; SPR) was “B (a compound having 3 or more and less than 10 is denoted as B)” and the “NRAS/KRAS (ratio of KD for GDP-bound NRAS wild-type to KD for KRAS)” value ([2]; SPR) was “B (a compound having 3 or more and less than 10 is denoted as B)”.

For `CCCN(C)C(=O)[C@@H]1CC(=O)N(C)[C@@H](C(C)C)C(=O)N[C@@H]([C@@H](C)CC)C(=O)N(C)CC(=O)N(C)[C@H]2C/C=C\CCN(C2=O)[C@@H](Cc2ccc(C(F)(F)F)cc2)C(=O)N(C)CC(=O)N[C@@H](CCc2ccc(C(F)(F)F)c(OC)c2)C(=O)N2C[C@H](OCC)C[C@H]2C(=O)NC2(CCC2)C(=O)N(C)[C@@H](C2CCCC2)C(=O)N1C` [PP2020], the “HRAS/KRAS (ratio of KD value for HRAS to KD value for KRAS)” value [1, 3] was “A (a compound having 10 or more and less than 20 is denoted as A)” and the “NRAS/KRAS (ratio of KD value for NRAS to KD value for KRAS)” value [2, 4] was “A (a compound having 10 or more and less than 20 is denoted as A)”.

In the case of `CCO[C@@H]1C[C@H]2C(=O)NC3(CCC3)C(=O)N(C)[C@@H](C3CCCC3)C(=O)N(C)[C@H](C(=O)N3CCOCC3)CC(=O)N(C)[C@@H](CC(C)C)C(=O)N[C@@H](C3CC(F)(F)C3)C(=O)N(C)CC(=O)N(C)[C@H]3CCCCN(C3=O)[C@@H](Cc3ccc(C(F)(F)F)cc3)C(=O)N(C)CC(=O)N[C@@H](CCc3cc(F)c(C(F)(F)F)c(F)c3)C(=O)N2C1` [PP0807], the “HRAS/KRAS (ratio of KD value with respect to GDP-bound HRAS wild-type protein to KD value with respect to KRAS)” value ([1]; SPR) is reported as “B (a compound having 3 or more and less than 10 is denoted as B)” and the “NRAS/KRAS (ratio of KD value with respect to GDP-bound NRAS wild-type protein to KD value with respect to KRAS)” value ([2]; SPR) is reported as “B (a compound having 3 or more and less than 10 is denoted as B)”.
